Assay: xn = mol fraction of the nth substance listed

CC(C)(C)O + CCCCCCCC
viscosity [mPa·s], 101 kPa
Conditions | x1 = 0.8499 | x1 = 0.9 | x1 = 0.9235
303.15 K | – | – | 2.015
313.15 K | 1.075 | 1.275 | –

CCCC(=O)OC + CCCCCCCC
101.33 kPa
Conditions | viscosity [mPa·s]
293.15 K, x1 = 0.0893 | 0.53
293.15 K, x1 = 0.137 | 0.525
293.15 K, x1 = 0.2169 | 0.519
293.15 K, x1 = 0.3101 | 0.514
293.15 K, x1 = 0.3906 | 0.514
293.15 K, x1 = 0.5062 | 0.516
293.15 K, x1 = 0.6094 | 0.522
293.15 K, x1 = 0.6977 | 0.529
293.15 K, x1 = 0.795 | 0.54
293.15 K, x1 = 0.8572 | 0.55
293.15 K, x1 = 0.9222 | 0.562
303.15 K, x1 = 0.1392 | 0.468
303.15 K, x1 = 0.2271 | 0.462
303.15 K, x1 = 0.315 | 0.459
303.15 K, x1 = 0.4073 | 0.458
303.15 K, x1 = 0.5146 | 0.459
303.15 K, x1 = 0.607 | 0.464
303.15 K, x1 = 0.6957 | 0.47
303.15 K, x1 = 0.7994 | 0.48
303.15 K, x1 = 0.8631 | 0.488
303.15 K, x1 = 0.9198 | 0.497
313.15 K, x1 = 0.07444 | 0.425
313.15 K, x1 = 0.1338 | 0.42
313.15 K, x1 = 0.2249 | 0.416
313.15 K, x1 = 0.3123 | 0.413
313.15 K, x1 = 0.3936 | 0.411
313.15 K, x1 = 0.4968 | 0.413
313.15 K, x1 = 0.6049 | 0.417
313.15 K, x1 = 0.6981 | 0.423
313.15 K, x1 = 0.8007 | 0.432
313.15 K, x1 = 0.866 | 0.439
313.15 K, x1 = 0.9319 | 0.448

CCCCOC(=O)c1ccccc1 + CCCCCCCC
101 kPa
Conditions | viscosity [mPa·s]
298.15 K, x2 = 0.0819 | 2.313
298.15 K, x2 = 0.1257 | 2.139
298.15 K, x2 = 0.1681 | 1.973
298.15 K, x2 = 0.2263 | 1.771
298.15 K, x2 = 0.2749 | 1.61
298.15 K, x2 = 0.3195 | 1.476
298.15 K, x2 = 0.3719 | 1.339
298.15 K, x2 = 0.4121 | 1.246
298.15 K, x2 = 0.473 | 1.117
298.15 K, x2 = 0.5153 | 1.038
298.15 K, x2 = 0.5596 | 0.971
298.15 K, x2 = 0.6051 | 0.9
298.15 K, x2 = 0.6559 | 0.827
298.15 K, x2 = 0.7053 | 0.772
298.15 K, x2 = 0.7427 | 0.729
298.15 K, x2 = 0.794 | 0.674
298.15 K, x2 = 0.8349 | 0.635
298.15 K, x2 = 0.8859 | 0.591
298.15 K, x2 = 0.9357 | 0.552
308.15 K, x2 = 0.0945 | 1.866
308.15 K, x2 = 0.1325 | 1.737
308.15 K, x2 = 0.1853 | 1.579
308.15 K, x2 = 0.2276 | 1.465
308.15 K, x2 = 0.2687 | 1.364
308.15 K, x2 = 0.3288 | 1.233
308.15 K, x2 = 0.3769 | 1.139
308.15 K, x2 = 0.4139 | 1.073
308.15 K, x2 = 0.4741 | 0.975
308.15 K, x2 = 0.5134 | 0.916
308.15 K, x2 = 0.5651 | 0.848
308.15 K, x2 = 0.6054 | 0.797
308.15 K, x2 = 0.6525 | 0.743
308.15 K, x2 = 0.7052 | 0.688
308.15 K, x2 = 0.7478 | 0.649
308.15 K, x2 = 0.7925 | 0.61
308.15 K, x2 = 0.8351 | 0.577
308.15 K, x2 = 0.8734 | 0.549
308.15 K, x2 = 0.9291 | 0.514
318.15 K, x2 = 0.0361 | 1.714
318.15 K, x2 = 0.0929 | 1.554
318.15 K, x2 = 0.1407 | 1.438
318.15 K, x2 = 0.196 | 1.309
318.15 K, x2 = 0.2419 | 1.215
318.15 K, x2 = 0.2984 | 1.108
318.15 K, x2 = 0.346 | 1.027
318.15 K, x2 = 0.4006 | 0.943
318.15 K, x2 = 0.4467 | 0.878
318.15 K, x2 = 0.499 | 0.812
318.15 K, x2 = 0.5446 | 0.759
318.15 K, x2 = 0.5955 | 0.706
318.15 K, x2 = 0.6382 | 0.665
318.15 K, x2 = 0.6905 | 0.619
318.15 K, x2 = 0.7358 | 0.584
318.15 K, x2 = 0.7849 | 0.546
318.15 K, x2 = 0.8274 | 0.518
318.15 K, x2 = 0.8768 | 0.488
318.15 K, x2 = 0.9193 | 0.464

CC(C)(C)O + CCCCCCCCCC
Conditions | viscosity [mPa·s]
323.15 K, 101 kPa, x1 = 0.9499 | 1.155

CCCCOC(=O)c1ccccc1 + CCCCCCCCCC
101 kPa
Conditions | viscosity [mPa·s]
298.15 K, x2 = 0.0918 | 2.334
298.15 K, x2 = 0.1358 | 2.183
298.15 K, x2 = 0.1792 | 2.041
298.15 K, x2 = 0.2262 | 1.896
298.15 K, x2 = 0.2664 | 1.788
298.15 K, x2 = 0.3097 | 1.678
298.15 K, x2 = 0.3591 | 1.567
298.15 K, x2 = 0.4089 | 1.47
298.15 K, x2 = 0.4486 | 1.401
298.15 K, x2 = 0.4948 | 1.329
298.15 K, x2 = 0.5503 | 1.25
298.15 K, x2 = 0.5873 | 1.204
298.15 K, x2 = 0.6281 | 1.153
298.15 K, x2 = 0.6957 | 1.077
298.15 K, x2 = 0.741 | 1.032
298.15 K, x2 = 0.7899 | 0.988
298.15 K, x2 = 0.8403 | 0.946
298.15 K, x2 = 0.8939 | 0.908
298.15 K, x2 = 0.9566 | 0.87
308.15 K, x2 = 0.0669 | 1.981
308.15 K, x2 = 0.1091 | 1.855
308.15 K, x2 = 0.1542 | 1.738
308.15 K, x2 = 0.1965 | 1.637
308.15 K, x2 = 0.245 | 1.534
308.15 K, x2 = 0.2934 | 1.443
308.15 K, x2 = 0.3293 | 1.381
308.15 K, x2 = 0.3765 | 1.306
308.15 K, x2 = 0.4326 | 1.224
308.15 K, x2 = 0.4647 | 1.182
308.15 K, x2 = 0.5148 | 1.12
308.15 K, x2 = 0.563 | 1.063
308.15 K, x2 = 0.6162 | 1.008
308.15 K, x2 = 0.6547 | 0.972
308.15 K, x2 = 0.7081 | 0.924
308.15 K, x2 = 0.7512 | 0.891
308.15 K, x2 = 0.8136 | 0.846
308.15 K, x2 = 0.8573 | 0.818
308.15 K, x2 = 0.9215 | 0.783
318.15 K, x2 = 0.0724 | 1.636
318.15 K, x2 = 0.0793 | 1.618
318.15 K, x2 = 0.1214 | 1.527
318.15 K, x2 = 0.1698 | 1.43
318.15 K, x2 = 0.2143 | 1.349
318.15 K, x2 = 0.2625 | 1.268
318.15 K, x2 = 0.3071 | 1.201
318.15 K, x2 = 0.3576 | 1.129
318.15 K, x2 = 0.4024 | 1.073
318.15 K, x2 = 0.4543 | 1.013
318.15 K, x2 = 0.4998 | 0.966
318.15 K, x2 = 0.551 | 0.917
318.15 K, x2 = 0.5985 | 0.876
318.15 K, x2 = 0.6498 | 0.834
318.15 K, x2 = 0.6927 | 0.804
318.15 K, x2 = 0.7509 | 0.764
318.15 K, x2 = 0.8026 | 0.733
318.15 K, x2 = 0.901 | 0.682
318.15 K, x2 = 0.9265 | 0.673

Reference: the CheMixHub viscosity set
